Structures can show the parent of a compound that is named as a salt. Where two headings read alike, the source gives them in different places.
Test system: murine neural precursor cells (neurosphere cultures)
Experiment: HTS of LOPAC library against secondary neurosphere cultures, MTT proliferation assay at 3 μM, day 7 (z score, P value)
Assay type: cell-based, mouse
[1] = LOPAC library screen, 3 μM, MTT, secondary neurosphere cultures, day 7
[2] = primary LOPAC screen, 3 μM, MTT, neurosphere proliferation
[3] = yes/no: significantly inhibited neurosphere proliferation in the primary screen
[4] = yes/no: significantly inhibited neurosphere proliferation (P<0.01) in primary screen
[5] = LOPAC screen, neurosphere MTT proliferation, 3 μM, day 7
[6] = LOPAC library screen at 3 μM, secondary neurosphere cultures, MTT
[7] = LOPAC primary screen, neurosphere MTT proliferation, 3 μM, day 7
[8] = yes = significantly inhibited neurosphere proliferation (P<0.01) in the primary screen
[9] = yes/no: significantly inhibited neurosphere proliferation (P<0.01) in the primary screen
[10] = yes/no: significantly inhibited neurosphere proliferation in primary screen
[11] = LOPAC library screen, 3 μM, MTT, neurosphere cultures

In the case of `CC(N)(C(=O)O)c1ccc(C(=O)O)cc1` (stereo not drawn) [(B1)-alpha-Methyl-4-carboxyphenylglycine], the “Z Score” value is reported as 0.727.

`C=CC(N)CCC(=O)O` (stereo not shown) [(B1)-gamma-Vinyl GABA] was tested, and the “Z Score” value was −0.701.

With `CCC1(c2ccc(N)cc2)CCC(=O)NC1=O` (stereo not shown) [(B1)-p-Aminoglutethimide] the “Z Score” value was −0.4441.

With `NC(Cc1ccc(Cl)cc1)C(=O)O` (stereo not shown) [(B1)-p-Chlorophenylalanine] the “Z Score” value was −0.2471.

`NC/C=C/C(=O)O` [(E)-4-amino-2-butenoic acid] was tested, and the “Z Score” value [1] was −2.149, the Z score [2] was −2.149 and the Activity [3] was “no”.

For `O=c1[nH]c(=O)n([C@H]2C[C@H](O)[C@@H](CO)O2)cc1/C=C/Br` [(E)-5-(2-Bromovinyl)-2′-deoxyuridine], the “Z Score” value (168 h, 3 µM) was −2.123, the Z score (168 h, 3 µM) was −2.123 and the Activity [4] was “no”.

In the case of `CS(=O)(=O)O.Cc1c(C(=O)c2cccc3ccccc23)c2cccc3c2n1[C@H](CN1CCOCC1)CO3` [(R)-(+)-WIN 55,212-2 mesylate], the “Z Score” value is reported as −0.6807, the Z score [2] is reported as −0.681 and the Activity [3] is reported as “no”.

`N[C@H](C(=O)O)c1cc(O)cc(O)c1` [(S)-3,5-Dihydroxyphenyglycine] was tested, and the Z score [5] was −0.336 and the Activity [4] was “no”.

`N[C@H](C(=O)O)c1cc(O)cc(O)c1` [(S)-3,5-Dihydroxyphenylglycine] was tested, and the “Z Score” value [6] was −0.3364.

In the case of `CC[C@@]1(O)C(=O)OCc2c1cc1n(c2=O)Cc2cc3ccccc3nc2-1` [(S)-(+)-Camptothecin], the “Z Score” value [1] is reported as −9.67, the Z score [7] is reported as −9.670 and the Activity [8] is reported as “yes”.

In the case of `OC[C@H]1O[C@@H](n2cnc3c(N[C@H]4CC5CCC4C5)ncnc32)[C@H](O)[C@@H]1O` (stereo partly drawn) [(S)-ENBA], the “Z Score” value is reported as 0.2078, the Z score [7] is reported as 0.208 and the Activity [4] is reported as “no”.

`C[C@](N)(CCP(=O)(O)O)C(=O)O.Cl` [(S)-MAP4 hydrochloride] was tested, and the “Z Score” value was −0.5525, the Z score [7] was −0.553 and the Activity [8] was “no”.

In the case of `C/C=C1\C(=O)C[C@H]2[C@@H]3CCC4=CC(=O)CC[C@]4(C)[C@H]3CC[C@]12C` [(Z)-Gugglesterone], the “Z Score” value is reported as 3.205, the Z score [5] is reported as 3.205 and the Activity [4] is reported as “no”.

In the case of `COc1ccc2c3c1O[C@H]1C(=O)CC[C@@]4(O)[C@@H](C2)N(CC2CC2)CC[C@]314.Cl` [(−)-3-Methoxynaltrexone hydrochloride], the “Z Score” value is reported as 0.5963, the Z score [7] is reported as 0.596 and the Activity [9] is reported as “no”.

`CNC[C@H](O)c1ccc(O)c(O)c1.O=C(O)C(O)C(O)C(=O)O` [(−)-Epinephrine bitartrate] was tested, and the “Z Score” value [6] was −0.5304, the Z score [7] was −0.530 and the Activity [4] was “no”.

In the case of `C=C(C)[C@@H]1CC=C(C(=O)O)CC1` [(−)-Perilic acid], the Z score [7] is reported as −1.321 and the Activity [10] is reported as “no”.

`CNC(=O)Oc1ccc2c(c1)[C@]1(C)CCN(C)[C@@H]1N2C` [(−)-Physostigmine] was tested, and the “Z Score” value was −0.2178, the Z score [7] was −0.218 and the Activity [4] was “no”.

For `C[N+]1(C)[C@@H]2C[C@@H](OC(=O)[C@H](CO)c3ccccc3)C[C@H]1[C@@H]1O[C@@H]12.[Br-]` [(−)-Scopolamine methyl bromide], the “Z Score” value was −0.8468, the Z score [7] was −0.847 and the Activity [10] was “no”.

With `Cl.c1ccc([C@H]2CN3CCSC3=N2)cc1` [(−)-Teramisole hydrochloride] the Z score [7] was −1.866 and the Activity [4] was “no”.

With `Cl.NC[C@@H]1O[C@H](C23CC4CC(CC(C4)C2)C3)Cc2c1ccc(O)c2O` [A-77636 hydrochloride] the “Z Score” value was 1.44, the Z score [2] was 1.440 and the Activity [3] was “no”.

With `CCS(=O)(=O)Nc1cccc(C(=C2CCCCC2)c2cnc[nH]2)c1` [A-315456] the “Z Score” value was 0.3628, the Z score [7] was 0.363 and the Activity [8] was “no”.

`CC1=C(C)C(=O)C(CCCCC#CCCCC#CCO)=C(C)C1=O` [AA-861] was tested, and the “Z Score” value (LOPAC library screen at 3 μM, MTT, secondary neurosphere cultures, screened in singlets) was 1.517 and the Z score [2] was 1.517.

In the case of `CNC(=O)[C@H]1O[C@@H](n2cnc3c(NCc4ccc(N)cc4)ncnc32)[C@H](O)[C@@H]1O` [AB-MECA], the “Z Score” value is reported as 0.7604, the Z score [2] is reported as 0.760 and the Activity [3] is reported as “no”.

In the case of `O=C(Cc1ccc(Cl)c(Cl)c1)OCCN1CCCC1` [AC 915 oxalate], the “Z Score” value [6] is reported as −0.8903, the Z score [7] is reported as −0.890 and the Activity [9] is reported as “no”.

`CC(C)C1C2CCC(C2)C1N.Cl` (stereo not shown) [AGN 192403 hydrochloride] was tested, and the “Z Score” value was 0.7032, the Z score [2] was 0.703 and the Activity [3] was “no”.

For `NC1(C(=O)O)CCc2cc(C(=O)O)ccc21` (stereo not shown) [AIDA], the “Z Score” value was 0.154, the Z score [2] was 0.154 and the Activity [3] was “no”.

For `O=C(O)CCC/C=C\C[C@@H]1[C@@H](/C=C/[C@H](O)C2Cc3ccccc3C2)[C@@H](F)C[C@@H]1O` [AL-8810], the “Z Score” value was −1.806, the Z score [2] was −1.806 and the Activity [3] was “no”.

`CCN(CC)c1ncnc2c1ncn2[C@@H]1O[C@H](COP(=O)([O-])OP(=O)([O-])C(Br)(Br)P(=O)([O-])O)[C@@H](O)[C@H]1O.[Na+].[Na+].[Na+]` [ARL 67156 trisodium salt] was tested, and the “Z Score” value was −0.168, the Z score [2] was −0.168 and the Activity [3] was “no”.

`CC(C)(C)c1o[nH]c(=O)c1CC(N)C(=O)O` (stereo not shown) [ATPA] was tested, and the Activity was “no”, the “Z Score” value was 0.2832 and the Z score [2] was 0.283.

For `CC(C)(C)c1onc(OCP(=O)(O)O)c1CC(N)C(=O)O` (stereo not shown) [ATPO], the “Z Score” value was −1.68, the Z score [2] was −1.680 and the Activity [3] was “no”.

With `CC(N)=O` [Acetamide] the “Z Score” value (168 h, 3 µM) was −1.94, the Z score (168 h, 3 µM) was −1.940 and the Activity [10] was “no”.

In the case of `CC(=O)Nc1nnc(S(N)(=O)=O)s1` [Acetazolamide], the “Z Score” value [11] is reported as 1.111, the Z score [7] is reported as 1.111 and the Activity [8] is reported as “no”.

For `CC(=O)c1ccc(S(=O)(=O)NC(=O)NC2CCCCC2)cc1` [Acetohexamide], the “Z Score” value [1] was −2.24, the Z score [2] was −2.240 and the Activity [3] was “no”.

`CC(=O)SCC[N+](C)(C)C.[Cl-]` [Acetyithiocholine chloride] was tested, and the “Z Score” value was 0.004223.

For `CC(=O)OC(C)C[N+](C)(C)C.[Cl-]` (stereo not drawn) [Acetyl-beta-methylcholine chloride], the “Z Score” value [6] was −0.3382, the Z score [2] was −0.338 and the Activity [3] was “no”.

For `CC(=O)Oc1ccccc1C(=O)O` [Acetylsalicyclic acid], the Z score [2] was −0.481 and the Activity [3] was “no”.

For `CC(=O)Oc1ccccc1C(=O)O` [Acetylsalicylic acid], the “Z Score” value [6] was −0.4812.

For `CC(=O)SCC[N+](C)(C)C.[Cl-]` [Acetylthiocholine chloride], the Z score [2] was 0.004 and the Activity [3] was “no”.

With `CCCCC[C@H](CC(=O)NO)C(=O)N[C@H](C(=O)N1CCC[C@H]1CO)C(C)C` [Actinonin] the “Z Score” value (168 h, 3 µM) was −3.501, the Z score (168 h, 3 µM) was −3.501 and the Activity [8] was “yes”.

In the case of `Nc1nc2c(ncn2COCCO)c(=O)[nH]1` [Acyclovir], the “Z Score” value [6] is reported as −1.215, the Z score [7] is reported as −1.215 and the Activity [9] is reported as “no”.

For `NCCNC(=O)Cc1ccc(NC(=O)Cc2ccc(Nc3ncnc4c3ncn4[C@@H]3O[C@H](CO)[C@@H](O)[C@H]3O)cc2)cc1` [Adenosine amine congener], the “Z Score” value [6] was −0.3345, the Z score [2] was −0.334 and the Activity [3] was “no”.

For `Nc1ncnc2c1ncn2[C@@H]1O[C@H](CO)[C@@H](O)[C@H]1O` [Adenosine], the “Z Score” value [6] was −0.2086, the Z score [2] was −0.209 and the Activity [3] was “no”.

`N=C(N)NCCCCN.O=S(=O)(O)O` [Agmatine sulfate] was tested, and the “Z Score” value [11] was 0.5881, the Z score [7] was 0.588 and the Activity [8] was “no”.

`CC1=C[C@@H]2c3cccc4[nH]cc(c34)C[C@H]2N(C)C1` [Agroclavine] was tested, and the “Z Score” value was −0.9109, the Z score [2] was −0.911 and the Activity [3] was “no”.

With `CC(N)C(=O)OC(C)(C)Cc1ccc(Cl)cc1` (stereo not shown) [Alaproclate hydrochloride] the “Z Score” value (168 h, 3 µM) was −0.1725, the Z score (168 h, 3 µM) was −0.172 and the Activity [3] was “no”.

For `Oc1ncnc2[nH]ncc12` [Allopurinol], the “Z Score” value [11] was 0.1473, the Z score [2] was 0.147 and the Activity [3] was “no”.

With `O=c1nc2[nH]c3ccccc3nc-2c(=O)[nH]1` [Alloxazine] the “Z Score” value [6] was −0.4424, the Z score [2] was −0.442 and the Activity [3] was “no”.

`C=CCc1ccccc1OCC(O)CNC(C)C` (stereo not shown) [Alprenolol hydrochloride] was tested, and the “Z Score” value [1] was −2.143, the Z score [2] was −2.143 and the Activity [3] was “no”.

In the case of `CN(C)c1nc(N(C)C)nc(N(C)C)n1` [Altretamine], the “Z Score” value [1] is reported as −1.322, the Z score [2] is reported as −1.322 and the Activity [3] is reported as “no”.

`NC12CC3CC(CC(C3)C1)C2` [Amantadine hydrochloride] was tested, and the “Z Score” value [6] was −0.6531, the Z score [2] was −0.653 and the Activity [3] was “no”.

With `CCn1cc(C(=O)O)c(=O)c2ccc(Cc3ccccc3)nc21` [Amfonelic acid] the “Z Score” value [11] was 0.488, the Z score [5] was 0.488 and the Activity [4] was “no”.

For `NCCCNCCSP(=O)(O)O` [Amifostine], the “Z Score” value (168 h, 3 µM) was 0.3592, the Z score (168 h, 3 µM) was 0.359 and the Activity [8] was “no”.

With `N=C(N)NC(=O)c1nc(Cl)c(N)nc1N` [Amiloride hydrochloride] the “Z Score” value [6] was −0.7992, the Z score [7] was −0.799 and the Activity [9] was “no”.

In the case of `CN1[C@@H]2CC[C@H]1C[C@@H](OC(c1ccccc1)c1ccccc1N)C2` (stereo partly shown) [Aminobenztropine], the “Z Score” value [1] is reported as −1.455, the Z score [7] is reported as −1.455 and the Activity [9] is reported as “no”.

With `NN=C(N)N.NN=C(N)N.O=S(=O)(O)O` [Aminoguanidine hemisulfate] the Activity was “no”, the “Z Score” value was −1.219 and the Z score was −1.219.

In the case of `N=C(N)NN` [Aminoguanidine hydrochloride], the “Z Score” value [11] is reported as −0.000731, the Z score [2] is reported as −0.001 and the Activity [3] is reported as “no”.

In the case of `Cn1c(=O)c2[nH]cnc2n(C)c1=O.Cn1c(=O)c2[nH]cnc2n(C)c1=O.NCCN` [Aminophylline ethylenediamine], the Activity is reported as “no”, the “Z Score” value [1] is reported as −1.537 and the Z score [2] is reported as −1.537.
